Reference: US11680060B2, “Bicycloheptane pyrrolidine orexin receptor agonists” (Merck Sharp & Dohme LLC, priority 2020, dated 2023)
Read-outs that look alike come from different tables or passages of the source.

Biological target: human OX2R (Homo sapiens (Human), UniProt O43614)
Test: IPOne (IP-1) assay in CHO cells expressing human OX2R
Format: cell-based
Settings: CHO
In short: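 CHO cells stably expressing human OX2R were stimulated with compound (10-point ½-log dilutions) for 2 h at 37 °C. IP-1 accumulation was read by HTRF (IP-One, 665/620 nm). EC50 from a four-parameter fit; % effect relative to 1 μM reference agonist control.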

[1] = percentage of mean max effect of a reference compound at 1 uM (100% activity by comparison to Orexin A), human OX2R, read-out: Emax (%)

Chain of human OX2R (O43614 whole entry): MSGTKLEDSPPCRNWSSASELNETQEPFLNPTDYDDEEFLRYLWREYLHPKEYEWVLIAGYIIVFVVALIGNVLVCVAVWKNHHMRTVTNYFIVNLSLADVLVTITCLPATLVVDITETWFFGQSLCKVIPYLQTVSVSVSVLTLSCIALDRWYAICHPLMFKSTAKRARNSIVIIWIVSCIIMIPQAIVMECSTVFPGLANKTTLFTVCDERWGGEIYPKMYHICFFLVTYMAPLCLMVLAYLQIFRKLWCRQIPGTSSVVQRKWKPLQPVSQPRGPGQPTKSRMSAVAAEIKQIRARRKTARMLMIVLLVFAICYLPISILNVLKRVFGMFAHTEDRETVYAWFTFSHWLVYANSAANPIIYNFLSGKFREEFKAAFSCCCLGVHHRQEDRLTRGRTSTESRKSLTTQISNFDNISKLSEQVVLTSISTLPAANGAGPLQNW

Structure (SMILES) | Emax [1] | Emax
COC(=O)N1[C@H](C)C[C@H](NS(=O)(=O)C2CC2)[C@@H]1CO[C@H]1CC[C@@]2(c3ncc(F)cn3)C[C@H]2C1 [Example 42, methyl (2R,3S,5R)-3-(cyclopropanesulfonamido)-2-((((1S,3S,6R)-6-(5-fluoropyrimidin-2-yl)bicyclo[4.1.0]heptan-3-yl)oxy)methyl)-5-methylpyrrolidine-1-carboxylate] | 103% | 
COC(=O)N1[C@H](C)C[C@H](NS(=O)(=O)N2CCC2)[C@@H]1CO[C@@H]1CC[C@]2(c3ncc(F)cn3)C[C@@H]2C1 [Example 43, methyl (2R,3S,5R)-3-(azetidine-1-sulfonamido)-2-((((1R,3R,6S)-6-(5-fluoropyrimidin-2-yl)bicyclo[4.1.0]heptan-3-yl)oxy)methyl)-5-methylpyrrolidine-1-carboxylate] | 97.8% | 
COC(=O)N1[C@H](C)C[C@H](NS(=O)(=O)C(F)(F)F)[C@@H]1CO[C@@H]1CC[C@]2(c3ncc(F)cn3)C[C@@H]2C1 [Example 44, methyl (2R,3S,5R)-2-((((1R,3R,6S)-6-(5-fluoropyrimidin-2-yl)bicyclo[4.1.0]heptan-3-yl)oxy)methyl)-5-methyl-3-((trifluoromethyl)sulfonamido)pyrrolidine-1-carboxylate] | 103% | 
COC(=O)N1[C@H](C)C[C@H](NS(=O)(=O)Cc2ccccc2)[C@@H]1CO[C@@H]1CC[C@]2(c3ncc(F)cn3)C[C@@H]2C1 [Example 45, methyl (2R,3S,5R)-2-((((1R,3R,6S)-6-(5-fluoropyrimidin-2-yl)bicyclo[4.1.0]heptan-3-yl)oxy)methyl)-5-methyl-3-((phenylmethyl)sulfonamido)pyrrolidine-1-carboxylate] | 92.7% | 
COC(=O)N1[C@H](C)C[C@H](NS(=O)(=O)C(C)C)[C@@H]1CO[C@@H]1CC[C@]2(c3ncc(F)cn3)C[C@@H]2C1 [Example 46, methyl (2R,3S,5R)-2-((((1R,3R,6S)-6-(5-fluoropyrimidin-2-yl)bicyclo[4.1.0]heptan-3-yl)oxy)methyl)-5-methyl-3-((1-methylethyl)sulfonamido)pyrrolidine-1-carboxylate] | 100% | 
CCS(=O)(=O)N[C@H]1C[C@@H](C)N(C(=O)OC)[C@H]1CO[C@@H]1CC[C@]2(c3ncc(F)cn3)C[C@@H]2C1 [Example 47, methyl (2R,3S,5R)-3-(ethylsulfonamido)-2-((((1R,3R,6S)-6-(5-fluoropyrimidin-2-yl)bicyclo[4.1.0]heptan-3-yl)oxy)methyl)-5-methylpyrrolidine-1-carboxylate] | 98.4% | 
COC(=O)N1[C@H](C)C[C@H](NS(=O)(=O)C(F)F)[C@@H]1CO[C@H]1CC[C@@]2(c3ncc(F)cn3)C[C@H]2C1 [Example 48, methyl (2R,3S,5R)-3-((difluoromethyl)sulfonamido)-2-((((1S,3S,6R)-6-(5-fluoropyrimidin-2-yl)bicyclo[4.1.0]heptan-3-yl)oxy)methyl)-5-methylpyrrolidine-1-carboxylate] | 101% | 
C[C@@H]1C[C@H](NS(C)(=O)=O)[C@H](CO[C@H]2CC[C@@]3(c4ncc(F)cn4)C[C@H]3C2)N1C(=O)OCC1CC(F)C1 (stereo partly drawn) [Example 49, (3-fluorocyclobutyl)methyl (2R,3S,5R)-2-((((1S,3S,6R)-6-(5-fluoropyrimidin-2-yl)bicyclo[4.1.0]heptan-3-yl)oxy)methyl)-5-methyl-3-(methylsulfonamido)pyrrolidine-1-carboxylate] |  | 103%
CCC(OC(=O)N1[C@H](C)C[C@H](NS(C)(=O)=O)[C@@H]1CO[C@H]1CC[C@@]2(c3ncc(F)cn3)C[C@H]2C1)C(F)F (stereo partly drawn) [Example 50, 1,1-difluorobutan-2-yl (2R,3S,5R)-2-((((1S,3S,6R)-6-(5-fluoropyrimidin-2-yl)bicyclo[4.1.0]heptan-3-yl)oxy)methyl)-5-methyl-3-(methylsulfonamido)pyrrolidine-1-carboxylate] | 104% | 
C[C@@H]1C[C@H](NS(C)(=O)=O)[C@H](CO[C@H]2CC[C@@]3(c4ncc(F)cn4)C[C@H]3C2)N1C(=O)OC[C@H]1C[C@H]1F [Example 51, ((1R,2R)-2-fluorocyclopropyl)methyl (2R,3S,5R)-2-((((1S,3S,6R)-6-(5-fluoropyrimidin-2-yl)bicyclo[4.1.0]heptan-3-yl)oxy)methyl)-5-methyl-3-(methylsulfonamido)pyrrolidine-1-carboxylate] | 102% | 
C[C@@H]1C[C@H](NS(C)(=O)=O)[C@H](CO[C@H]2CC[C@@]3(c4ncc(F)cn4)C[C@H]3C2)N1C(=O)OCCC(F)F [Example 52, 3,3-difluoropropyl (2R,3S,5R)-2-((((1S,3S,6R)-6-(5-fluoropyrimidin-2-yl)bicyclo[4.1.0]heptan-3-yl)oxy)methyl)-5-methyl-3-(methylsulfonamido)pyrrolidine-1-carboxylate] | 102% | 
C[C@@H]1C[C@H](NS(C)(=O)=O)[C@H](CO[C@H]2CC[C@@]3(c4ncc(F)cn4)C[C@H]3C2)N1C(=O)OCC1(F)CCC1 [Example 53, (1-fluorocyclobutyl)methyl (2R,3S,5R)-2-((((1S,3S,6R)-6-(5-fluoropyrimidin-2-yl)bicyclo[4.1.0]heptan-3-yl)oxy)methyl)-5-methyl-3-(methylsulfonamido)pyrrolidine-1-carboxylate] | 104% | 
C[C@@H]1C[C@H](NS(C)(=O)=O)[C@H](CO[C@H]2CC[C@@]3(c4ncc(F)cn4)C[C@H]3C2)N1C(=O)OCC(F)C1CCC1 (stereo partly drawn) [Example 54, 2-cyclobutyl-2-fluoroethyl (2R,3S,5R)-2-((((1S,3S,6R)-6-(5-fluoropyrimidin-2-yl)bicyclo[4.1.0]heptan-3-yl)oxy)methyl)-5-methyl-3-(methylsulfonamido)pyrrolidine-1-carboxylate] | 104% | 
C[C@@H]1C[C@H](NS(C)(=O)=O)[C@H](CO[C@H]2CC[C@@]3(c4ncc(F)cn4)C[C@H]3C2)N1C(=O)OC[C@H]1[C@H](C)C1(F)F [Example 55, ((1R,3S)-2,2-difluoro-3-methylcyclopropyl)methyl (2R,3S,5R)-2-((((1S,3S,6R)-6-(5-fluoropyrimidin-2-yl)bicyclo[4.1.0]heptan-3-yl)oxy)methyl)-5-methyl-3-(methylsulfonamido)pyrrolidine-1-carboxylate] | 105% | 
C[C@@H]1C[C@H](NS(C)(=O)=O)[C@H](CO[C@H]2CC[C@@]3(c4ncc(F)cn4)C[C@H]3C2)N1C(=O)O[C@H]1COC[C@@H]1F [Example 56, (3S,4S)-4-fluorotetrahydrofuran-3-yl (2R,3S,5R)-2-((((1S,3S,6R)-6-(5-fluoropyrimidin-2-yl)bicyclo[4.1.0]heptan-3-yl)oxy)methyl)-5-methyl-3-(methylsulfonamido)pyrrolidine-1-carboxylate] | 104% | 
C[C@@H]1C[C@H](NS(C)(=O)=O)[C@H](CO[C@H]2CC[C@@]3(c4ncc(F)cn4)C[C@H]3C2)N1C(=O)OCC1(C)CC1(F)F (stereo partly drawn) [Example 57, (2,2-difluoro-1-methylcyclopropyl)methyl (2R,3S,5R)-2-((((1S,3S,6R)-6-(5-fluoropyrimidin-2-yl)bicyclo[4.1.0]heptan-3-yl)oxy)methyl)-5-methyl-3-(methylsulfonamido)pyrrolidine-1-carboxylate] | 102% | 
CC(F)COC(=O)N1[C@H](C)C[C@H](NS(C)(=O)=O)[C@@H]1CO[C@H]1CC[C@@]2(c3ncc(F)cn3)C[C@H]2C1 (stereo partly drawn) [Example 58, 2-fluoropropyl (2R,3S,5R)-2-((((1S,3S,6R)-6-(5-fluoropyrimidin-2-yl)bicyclo[4.1.0]heptan-3-yl)oxy)methyl)-5-methyl-3-(methylsulfonamido)pyrrolidine-1-carboxylate] | 103% | 
C[C@@H]1C[C@H](NS(C)(=O)=O)[C@H](CO[C@H]2CC[C@@]3(c4ncc(F)cn4)C[C@H]3C2)N1C(=O)OCC1CC1(F)F (stereo partly drawn) [Example 59, (2,2-difluorocyclopropyl)methyl (2R,3S,5R)-2-((((1S,3S,6R)-6-(5-fluoropyrimidin-2-yl)bicyclo[4.1.0]heptan-3-yl)oxy)methyl)-5-methyl-3-(methylsulfonamido)pyrrolidine-1-carboxylate] | 104% | 
CCC(F)(F)COC(=O)N1[C@H](C)C[C@H](NS(C)(=O)=O)[C@@H]1CO[C@H]1CC[C@@]2(c3ncc(F)cn3)C[C@H]2C1 [Example 60, 2,2-difluorobutyl (2R,3S,5R)-2-((((1S,3S,6R)-6-(5-fluoropyrimidin-2-yl)bicyclo[4.1.0]heptan-3-yl)oxy)methyl)-5-methyl-3-(methylsulfonamido)pyrrolidine-1-carboxylate] | 104% | 
C[C@@H]1C[C@H](NS(C)(=O)=O)[C@H](CO[C@H]2CC[C@@]3(c4ncc(F)cn4)C[C@H]3C2)N1C(=O)OCC1(F)CC1 [Example 61, (1-fluorocyclopropyl)methyl (2R,3S,5R)-2-((((1S,3S,6R)-6-(5-fluoropyrimidin-2-yl)bicyclo[4.1.0]heptan-3-yl)oxy)methyl)-5-methyl-3-(methylsulfonamido)pyrrolidine-1-carboxylate] | 104% | 
C[C@@H]1C[C@H](NS(C)(=O)=O)[C@H](CO[C@H]2CC[C@@]3(c4ncc(F)cn4)C[C@H]3C2)N1C(=O)OCCF [Example 62, 2-Fluoroethyl (2R,3S,5R)-2-((((1S,3S,6R)-6-(5-fluoropyrimidin-2-yl)bicyclo[4.1.0]heptan-3-yl)oxy)methyl)-5-methyl-3-(methylsulfonamido)pyrrolidine-1-carboxylate] | 100% | 
CC(OC(=O)N1[C@H](C)C[C@H](NS(C)(=O)=O)[C@@H]1CO[C@H]1CC[C@@]2(c3ncc(F)cn3)C[C@H]2C1)C(F)F (stereo partly drawn) [Example 63, 1,1-Difluoropropan-2-yl (2R,3S,5R)-2-((((1S,3S,6R)-6-(5-fluoropyrimidin-2-yl)bicyclo[4.1.0]heptan-3-yl)oxy)methyl)-5-methyl-3-(methylsulfonamido)pyrrolidine-1-carboxylate] | 104% | 
